Assay [1] can be described thus: Binding ability of phage clones to silver particles. Particulars: peptide expressed on phage clone. As to the method:
(§1) By using the phage clone obtained in Example 1, the binding ability to titanium was evaluated by the following experiment. The same method as for panning operation shown in Example 1 was performed. The difference between Example 1 is that the stirring time of titanium and phage clone was 1 hour; the Tween 20 concentration and BSA concentration in each solution was 0.5%, and 1%, respectively, and that the titer of the phage added was 10^9 pfu for clone from D12, and 10^11 pfu for clone from C7C.
(§2) To investigate the binding specificity of phage clone expressing a peptide comprising an amino acid sequence shown in SEQ ID NO: 3 to metal material, to 10 mg each of gold (purity>99.9%, particle diameter<150 μm)/silver (purity>99.9%, particle diameter<75 μm)/copper (purity>99%, particle diameter 75-150 μm)/platinum (purity>99.9%, particle diameter<75 μm)/iron (purity>99.9%, particle diameter<150 μm)/tin (purity>99.9%, particle diameter<150 μm)/zinc (purity>99.9%, particle diameter<150 μm)/chrome (purity>98%, particle diameter>10 μm)/cobalt (purity>99%, particle diameter<75 μm)/silicon (purity>99%, particle diameter<150 μm) (Kojundo Chemical Lab., Saitama), the binding ability to each metal was examined by the same method of Example 2, by using 10^10 pfu/ml of phage clone expressing a peptide comprising an amino acid sequence shown in SEQ ID NO: 3.
(§3) In order to confirm whether the binding form to silver or silicone, and the sequence specificity of the phage clone expressing a peptide comprising an amino acid sequence shown in SEQ ID NO: 3 is similar as in the case of binding to titanium, the binding ability of the alanine substituted-mutant phage of SEQ ID NOs: 4, 5, 7, 8 used in Example 4 to silver/silicon was examined by the method shown in Example 2.

A short description of assay [2]: Binding ability of phage clones to titanium particles (eluted phage titer / added phage titer). The following applies: peptide expressed on phage clone; for binding ability to titanium: titanium particles, mutants compared with SEQ ID NO: 3 clone. How it is done:
10 mg of titanium particle with a particle diameter of […] (Sumitomo Titanium Corporation, Hyogo) was put into a 1.5 ml-Eppendorf tube, and washed twice with a solution of 500 μl of 50 mM tris (hydroxymethyl) aminomethane (herein after referred to as tris (Kishida Chemical (Osaka)) HCl buffer pH 7.5; 150 mM of sodium chloride (Wako Pure Chemicals, Osaka) solution (herein after referred to as TBS) supplemented with 0.1% bovine serum albumin (herein after referred to as BSA), 0.1% Polyoxyethylenesorbitan monolaurate (herein after referred as Tween-20 (Sigma, St. Louis)). Washing of titanium particles was performed by centrifuging with a desktop centrifuge H1300 (Kokusan) at 13,000 rpm, 5 sec, to precipitate titanium particles and to remove supernatant. After washing, in order to block the non-specific adsorption of the phage, the mixture was stirred by rotating with 1 ml of the same solution for 30 min at room temperature by using a rotary shaker rotator RT-50 (Taitec).
By centrifuging with a desktop centrifuge H1300 (Kokusan) at 13,000 rpm, 5 sec, titanium particles were precipitated, the supernatant was removed, and then 1 ml TBS containing peptide-expressing phage library, D12 library expressing linear random peptide of 12 residues (New England Biolabs, Beverly), 17×10^11 plaque-forming unit (herein after referred to as pfu), or C7C library expressing cyclic randam peptide of 7 residues (New Engand Biolabs) 2.0×10^11 pfu, 0.1% BSA and 0.1% Tween-20 solution were added, and stirred by rotating for 2 hours, at room temperature with a rotary shaker, rotator RT-50.
By centrifuging with a desktop centrifuge H1300 (Kokusan) at 13,000 rpm, 5 sec, the supernatant was removed, and the resultant was washed 10 times with 1 ml of TBS, 0.1% Tween-20 solution. Washing was performed by centrifuging at 8000×g, 5 sec, by precipitating titanium particles. After removing washing solution, 1 ml of 0.2 M glycine (Wako Pure Chemicals), HCl buffer pH 2.2 were added and stirred by rotating for 10 min at room temperature with rotator RT-50 (Taitec) to elute phage bound to titanium. Titanium was precipitated by centrifugation, and the supernatant was moved to a separate 1.5 ml-Eppendorf tube. Then, 150 μl of 1M tris/HCl buffer pH 9.1 was added to neutralize, and phage titer in the solution (plaque forming ability per unit solution) was measured according to a common procedure (Molecular Cloning Third Edition, Cold Spring Harbor Laboratory Press).
as §1
For clone strongly bound particularly with titanium (SEQ ID NO: 3) in Example 2, point mutants substituted by alanine having only one methyl group in the side chain was prepared and the change of binding ability to titanium was examined for each mutant phage. As point mutant comprises alanine in the 6th position in the expressed sequence, mutants were prepared for all the residues except the 6th residue. The preparation of point mutants was performed by Kunkel method (Molecular Cloning Third Edition, Cold Spring Harbor Laboratory Press). Synthetic DNAs used for preparing point mutants are shown in FIG. 8 (SEQ ID NOs: 40 to 50). The introduction of point mutation was confirmed by determining the DNA sequence of phage DNA. DNA sequencing was performed in the same manner as Example 1. The binding ability to titanium of the obtained point mutants was measured by the method shown in Example 2, by adjusting the phage amount added to 10^10 pfu.
The deletion mutants were prepared by the method shown schematically in FIG. 10. […]

Assay [3] in a line: Binding ability of phage clones to silicon particles. Particulars: peptide expressed on phage clone. As to the method:
as §1, §2, §3

Assay [4] is described as follows: Adsorption of synthetic peptide to silicon particles, Langmuir adsorption isotherm fitting. The following applies: Si. Type of assay: binding. As to the method: (§4) In order to confirm whether the synthetic peptide comprising an amino acid sequence shown in SEQ ID NO: 3 binds to titanium surface, the binding ability of the synthetic peptides comprising an amino acid sequence shown in SEQ ID NO: 3 to titanium particles was examined. 10 mg of titanium particles used in Example 1 was put into an Eppendorf tube, washed twice with 50 mM HEPES-NaOH, 150 mM NaCl. Then, 100 μl of 5 to 40 μM of the synthetic peptides of SEQ ID NO: 3, and the mixture was stirred by rotating by using a rotary shaker rotator RT-50 (Taitec) at room temperature for 2 hours. By centrifuging with a desk-top centrifuge H-1300 (Kokusan, Tokyo), at 13,000 rpm, for 5 sec., the supernatant was removed, mixed with fluoro aldehyde (Pias Rockford, Ill.), and by using a spectrofluorometer (Nippon Bunko, Tokyo), at excitation wave length 342 nm, fluorescent wave length 437 nm, the binding level to titanium was calculated from the peptide concentration of the supernatant. The relative surface area of titanium was calculated from the density and mean particle diameter. Further, the binding ability of the synthetic peptide comprising an amino acid sequence shown in SEQ ID NO: 2 to silicone/tin used in Example 13 was examined by the same method. […]

Assay [5] in a line: Binding ability of phage clone to copper particles. The following applies: peptide expressed on phage clone. As to the method: as §1, §2
Assay [6] in a line: Binding ability of phage clone to iron particles. Particulars: peptide expressed on phage clone. As to the method:
as §1, §2

Assay [7] is described as follows: QCM-D300 quartz crystal microbalance analysis of phage binding to titanium sensor. Particulars: phage clone; frequency and dissipation (viscoelasticity), sensor blocked with BSA. As to the method:
As for the clone strongly bound particularly with titanium (expressing peptide of SEQ ID NO: 3), the binding form of titanium surface and phage was examined, by measuring with QCM-D300 (Q-sense AB, Goeteborg), which is a device for quantification of interaction with a quartz crystal microbalance.
For a quartz crystal microbalance, titanium sensor being a genuine part of QCM-D300 was used. The temperature was fixed at 24.99° C., and the actual measurement value was from around 24.68° C. to 24.70° C. It was measured in a condition of blocking the sensor with BSA, and in a condition without blocking. When blocking with BSA is not performed, after measuring the standard value with TBS, the phage solution adjusted so that the phage titer becomes 10^10 pfu/ml was measured continuously. When blocking with BSA is performed, after measuring the standard value with TBS, blocking was conducted by incubating for about 10 min with TBS, 0.1% BSA, and after washing again migrated BSA with TBS, the phage solution adjusted so that the phage titer becomes 10^11 pfu/ml was measured continuously.
From the results shown in FIG. 6, it is clear that the phage clone is bound to the sensor from the change of frequency, under the absence of BSA. […]

Assay [8] in a line: Adsorption of synthetic peptide to titanium particles, Langmuir adsorption isotherm fitting. Type of assay: binding. The following applies: Ti. As to the method:
as §4

The record followed here is patent US7498403B2, “Peptides capable of binding to titanium silver silicone” (Japan Science and Technology Agency, priority 2003, dated 2009).

One may read the Kd as the equilibrium constant for the complex coming apart.

Turning to RALPDA [SEQ ID NO: 2], the “binding ability to silver” value in assay [1] is reported as “binds”. Besides, the “binding ability to titanium” value in assay [2] is recorded as “binds”. Further, the “binding ability to silicon” value in assay [3] is listed as “binds”. Besides, the “qm (maximum adsorption level)” value in assay [4] is 2.1 ± 0.3 × 10^−7 mole/m^2. Moreover, in assay [4] (read-out: Kd (dissociation constant)), the dissociation constant Kd is 13.2 ± 4 µM.
As for RKLPDA [SEQ ID NO: 1], in assay [2], the “binding ability to titanium” value is on record as “not affected by the deletion”.
In the case of “RKLPDAPGMHTW [SEQ ID NO: 3, tested on phage clone and as synthetic peptide]”, the “binding ability to titanium treated with hydrogen peroxide” value in assay [2] (titanium particles treated with 3% hydrogen peroxide for 1 hour) is recorded as “increased”. Further, the “binding ability to titanium” value in assay [2] is reported as “much higher”. Also, in assay [5], the binding to copper entry is “below the detection limit”. Also, the binding to iron entry in assay [6] is recorded as “below the detection limit”. Moreover, the “binding form of phage to titanium surface” value in assay [7] is recorded as “bound perpendicularly to titanium surface”. Also, in assay [8] (synthetic peptide 5 to 40 μM, 50 mM HEPES-NaOH, 150 mM NaCl, room temperature, 2 hours, read-out: Kd (dissociation constant)), the Kd came out at 11.1 ± 2.8 µM. Moreover, in assay [8] (synthetic peptide, Langmuir fitting), the “qm (maximum adsorption level)” value is given as 2.5 ± 0.3 × 10^−6 mole/m^2.
As for “SEQ ID NO: 4: e3-2-3 mutant, 1st amino acid residue substituted by Ala (AKLPDAPGMHTW)”, the “binding ability to silver” value in assay [1] is recorded as “same trend as for titanium”. The “binding ability to titanium” value in assay [2] is given as “significantly impaired”. For the same substance, the “binding ability to silicon” value in assay [3] is “same trend as for titanium”.
For “SEQ ID NO: 5: e3-2-3 mutant, 2nd amino acid residue substituted by Ala (RALPDAPGMHTW)”, the “binding ability to silver” value in assay [1] is “same trend as for titanium”. Moreover, the “binding ability to titanium” value in assay [2] is listed as “increased”. In assay [3], the “binding ability to silicon” value is “same trend as for titanium”.
As to “SEQ ID NO: 7: e3-2-3 mutant, 4th amino acid residue substituted by Ala (RKLADAPGMHTW)”, in assay [1], the “binding ability to silver” value is “same trend as for titanium”. Further, the “binding ability to titanium” value in assay [2] is “the most significantly impaired”. The “binding ability to silicon” value in assay [3] is “same trend as for titanium”.
On to “SEQ ID NO: 8: e3-2-3 mutant, 5th amino acid residue substituted by Ala (RKLPAAPGMHTW)”, for which, in assay [1], the “binding ability to silver” value is listed as “same trend as for titanium”. The “binding ability to titanium” value in assay [2] is on record as “significantly impaired”. Moreover, in assay [3], the “binding ability to silicon” value is recorded as “same trend as for titanium”.
“SEQ ID NO: 15: Ala is added/inserted to N terminal of e-3-2-3 (ARKLPDAPGMHTW)”: in assay [2], the “binding ability to titanium” value was “increase of the binding ability”.
